Reference: ChEMBL document CHEMBL1134076, “5,5-Diaryl-2-amino-4-pentenoates as novel, potent, and selective glycine transporter type-2 reuptake inhibitors” (Bioorg Med Chem Lett, 2001)

Assays:
[1] = molecular target: T1, Sodium- and chloride-dependent glycine transporter 2 (Rattus norvegicus, UniProt P58295); assay: In vitro glycine reuptake inhibitory activity against glycine transporter type-2 (GlyT-2) transporter cells after incubation at 37 degrees for 30 min in presence of 50 nM [3H]glycine.
T1 sequence (P58295 whole entry): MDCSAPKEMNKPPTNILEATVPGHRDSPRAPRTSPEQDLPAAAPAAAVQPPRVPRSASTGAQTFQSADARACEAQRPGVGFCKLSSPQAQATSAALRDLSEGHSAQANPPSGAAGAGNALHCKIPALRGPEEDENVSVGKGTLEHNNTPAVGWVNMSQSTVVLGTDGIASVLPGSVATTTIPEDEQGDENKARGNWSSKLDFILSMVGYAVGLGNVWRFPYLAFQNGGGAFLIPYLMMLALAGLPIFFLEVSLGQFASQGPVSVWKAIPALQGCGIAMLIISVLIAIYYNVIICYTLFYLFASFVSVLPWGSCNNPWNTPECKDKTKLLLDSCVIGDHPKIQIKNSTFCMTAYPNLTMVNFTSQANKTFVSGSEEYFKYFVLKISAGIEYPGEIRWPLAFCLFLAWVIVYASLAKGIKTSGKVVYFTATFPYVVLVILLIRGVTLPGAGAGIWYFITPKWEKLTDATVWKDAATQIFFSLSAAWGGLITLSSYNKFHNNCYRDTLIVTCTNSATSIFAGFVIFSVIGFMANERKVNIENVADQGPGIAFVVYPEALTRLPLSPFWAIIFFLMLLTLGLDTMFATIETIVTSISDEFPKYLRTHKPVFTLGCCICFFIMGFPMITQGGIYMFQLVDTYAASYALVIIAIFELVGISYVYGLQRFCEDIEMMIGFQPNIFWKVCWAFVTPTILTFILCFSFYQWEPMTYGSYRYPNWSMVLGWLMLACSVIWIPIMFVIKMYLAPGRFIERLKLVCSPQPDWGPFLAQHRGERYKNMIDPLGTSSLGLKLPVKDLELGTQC

[2] = molecular target: T2, Sodium- and chloride-dependent glycine transporter 1 (Rattus norvegicus, UniProt P28572); assay: In vitro glycine reuptake inhibitory activity against glycine transporter type-1 isoform C (GlyT-1c) transporter cells after incubation at 37 degrees for 30 min in presence of 50 nM [3H]glycine.
T2 sequence (P28572 whole entry): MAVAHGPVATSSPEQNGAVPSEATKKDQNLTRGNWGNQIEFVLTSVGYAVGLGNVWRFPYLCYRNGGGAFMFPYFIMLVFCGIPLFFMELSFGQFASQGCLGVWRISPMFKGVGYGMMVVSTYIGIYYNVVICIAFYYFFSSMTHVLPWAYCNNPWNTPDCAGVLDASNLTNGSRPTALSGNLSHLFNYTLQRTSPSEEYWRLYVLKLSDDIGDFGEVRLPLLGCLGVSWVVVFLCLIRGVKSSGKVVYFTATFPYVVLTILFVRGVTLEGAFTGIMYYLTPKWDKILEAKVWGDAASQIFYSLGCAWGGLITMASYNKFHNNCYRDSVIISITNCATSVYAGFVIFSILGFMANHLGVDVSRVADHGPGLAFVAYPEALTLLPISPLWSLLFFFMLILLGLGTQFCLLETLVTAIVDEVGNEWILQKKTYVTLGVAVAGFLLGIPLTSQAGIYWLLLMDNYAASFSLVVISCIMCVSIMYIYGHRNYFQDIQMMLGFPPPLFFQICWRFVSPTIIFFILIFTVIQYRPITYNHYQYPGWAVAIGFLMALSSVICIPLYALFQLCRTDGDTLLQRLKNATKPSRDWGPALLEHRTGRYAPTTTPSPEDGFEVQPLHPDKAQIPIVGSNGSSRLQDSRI

Structure (SMILES) | IC50 [1] | IC50 [2]
NC(C/C=C(\c1ccc2ccccc2c1)c1ccc(F)cc1F)C(=O)O (stereo not given) | 0.77 µM | > 10 µM
CC(C)c1ccc(/C(=C/CC(N)C(=O)O)c2ccc(F)cc2F)cc1 (stereo not given) | > 10 µM | > 10 µM
NC(C/C=C(\c1ccsc1)c1ccc(F)cc1F)C(=O)O (stereo not given) | 5.88 µM | > 10 µM
CC(C)c1ccc(/C(=C\CC(N)C(=O)O)c2ccc(C#N)cc2)cc1 (stereo not given) | 2.64 µM | > 10 µM
CC(C)c1ccc(/C(=C\C[C@H](N)C(=O)O)c2ccc(F)cc2F)cc1 | 0.15 µM | –
NC(C/C=C(\c1ccc(-c2ccccc2)cc1)c1ccc(F)cc1F)C(=O)O (stereo not given) | 3.66 µM | > 10 µM
NC(C/C=C(\c1cccc(-c2ccccc2)c1)c1ccc(F)cc1F)C(=O)O (stereo not given) | 1.34 µM | > 10 µM
COc1ccc(/C(=C/CC(N)C(=O)O)c2ccc(C(C)C)cc2)cc1 (stereo not given) | 1.16 µM | > 10 µM
CC(C)c1ccc(/C(=C\CC(N)C(=O)O)c2ccc(C(C)(C)C)cc2)cc1 (stereo not given) | 5.47 µM | > 10 µM
N#Cc1ccc(/C(=C\CC(N)C(=O)O)c2ccc(F)cc2F)cc1 (stereo not given) | > 10 µM | > 10 µM
CCc1ccc(/C(=C\CC(N)C(=O)O)c2ccc(F)cc2F)cc1CC (stereo not given) | 0.66 µM | > 10 µM
CC(C)c1ccc(/C(=C\CC(N)C(=O)O)c2ccc(-c3ccccc3)cc2)cc1 (stereo not given) | 2.06 µM | > 10 µM
CC(C)c1cccc(/C(=C\CC(N)C(=O)O)c2ccc(F)cc2F)c1 (stereo not given) | 1.59 µM | > 10 µM
CC(C)c1ccc(/C(=C\CC(N)C(=O)O)c2ccccc2)cc1 (stereo not given) | 0.4 µM | 8.34 µM
COc1ccc(/C(=C\CC(N)C(=O)O)c2ccc(F)cc2F)cc1 (stereo not given) | 2.03 µM | > 10 µM
CC(C)(C)c1ccc(/C(=C\CC(N)C(=O)O)c2ccc(F)cc2F)cc1 (stereo not given) | 1.74 µM | > 10 µM
CC(C)c1ccc(/C(=C\CC(N)C(=O)O)c2ccc(F)cc2F)cc1 (stereo not given) | 0.33 µM | > 10 µM
NC(C/C=C(\c1cccnc1)c1ccc(F)cc1F)C(=O)O (stereo not given) | > 10 µM | > 10 µM
N[C@@H](C/C=C(\c1ccc2ccccc2c1)c1ccc(F)cc1F)C(=O)O | 0.365 µM | –
CC(C)c1ccc(/C(=C\CC(N)C(=O)O)c2ccccc2F)cc1 (stereo not given) | 0.29 µM | 8.02 µM
CC(C)c1ccc(/C(=C\CC(N)C(=O)O)c2cccnc2)cc1 (stereo not given) | 5.93 µM | 6.48 µM
CC(C)c1ccc(/C(=C\CC(N)C(=O)O)c2ccsc2)cc1 (stereo not given) | 1.03 µM | 5.77 µM
CC(C)c1ccc(C(=CCC(N)C(=O)O)c2ccc(C(C)C)cc2)cc1 (stereo not given) | 2.03 µM | > 10 µM
NC(C/C=C(/c1ccc(F)cc1F)c1ccccc1-c1ccccc1)C(=O)O (stereo not given) | 2.75 µM | 8.92 µM
NC(C/C=C(/c1ccc(-c2ccccc2)cc1)c1ccc(F)cc1F)C(=O)O (stereo not given) | 2.4 µM | 3.4 µM
Cc1ccc(/C(=C\CC(N)C(=O)O)c2ccc(F)cc2F)cc1 (stereo not given) | 1.17 µM | 9.56 µM
NC(C/C=C(\c1ccccc1)c1ccc(F)cc1F)C(=O)O (stereo not given) | 6.44 µM | 9.5 µM
CCc1ccc(/C(=C\CC(N)C(=O)O)c2ccc(F)cc2F)cc1 (stereo not given) | 0.46 µM | > 10 µM
CCc1ccc(/C(=C\C[C@H](N)C(=O)O)c2ccc(F)cc2F)cc1CC | 0.283 µM | –
